Where “and” joins values, the source holds several entries; their conditions need not be identical. Equal entries are not always repeated.
Experiments:
ticks = experiment: Shell-vial bioassay of morbidity and mortality of ticks; format: in vivo; conditions: for LC50: calculated at 24 hours from Table No. 7
Procedure: Next, a shell-vial bioassay was performed to determine whether the nootkatone of the test products (i.e., space spray, lotion, and soap) lost biocidal activity due to the formulation process. The nootkatone derivatives from Example No. 1 were also tested to determine relative biocidal activity. Serial dilutions of each 2% product and nootkatone derivatives were made for a total of 8 concentrations per formulation/derivative. Controls included untreated controls and a nootkatone in acetone composition as a positive control. One hundred and fifty microliters of each concentration was added to a 1 dram glass shell vial and allowed to dry (see FIGS. 3A and 3B).
Each shell vial with ticks added was placed in a humid container, and morbidity and mortality of ticks were determined at 1 hr and 24 hr post-treatment. Each experiment was performed twice and the results averaged. […]

[1] = Solvent dissolution tests of nootkatone; format: physicochemical; conditions: data not shown
Procedure: Initially, solvent dissolution tests of nootkatone were performed.

SMILES | # Alive/10 (ticks; 0.25%, 1 hr) | # Alive/10 (ticks; 0.25%, 24 hr) | # Alive/10 (ticks; 0.002%, 1 hr) | # Alive/10 (ticks; 0.002%, 24 hr) | # Alive/10 (ticks; 0.004%, 1 hr) | # Alive/10 (ticks; 0.004%, 24 hr) | # Alive/10 (ticks; 0.008%, 1 hr) | # Alive/10 (ticks; 0.008%, 24 hr) | # Alive/10 (ticks; 0.016%, 1 hr) | # Alive/10 (ticks; 0.016%, 24 hr) | # Alive/10 (ticks; 0.031%, 1 hr) | # Alive/10 (ticks; 0.031%, 24 hr) | # Alive/10 (ticks; 0.063%, 1 hr) | # Alive/10 (ticks; 0.063%, 24 hr) | # Alive/10 (ticks; 0.125%, 1 hr) | # Alive/10 (ticks; 0.125%, 24 hr) | LC50 (ticks) | further results
C=C(C)[C@@H]1CCC2=CC(=O)C[C@@H](C)[C@]2(C)C1 [Nootkatone, nootkatone] | 3 and 2 | 0 | – | – | – | – | – | – | – | – | – | – | – | – | – | – | – | # Alive/10 (ticks; 0.01%, 1 hr): 7 and 5; # Alive/10 (ticks; 0.01%, 24 hr): 5 and 7; # Alive/10 (ticks; 0.02%, 1 hr): 5; # Alive/10 (ticks; 0.02%, 24 hr): 0; # Alive/10 (ticks; 0.03%, 1 hr): 4; # Alive/10 (ticks; 0.03%, 24 hr): 0; # Alive/10 (ticks; 0.06%, 1 hr): 4; # Alive/10 (ticks; 0.06%, 24 hr): 0; # Alive/10 (ticks; 0.13%, 1 hr): 4; # Alive/10 (ticks; 0.13%, 24 hr): 0; # Alive/10 (ticks; 0.5%, 24 hr): 0; LC50 (ticks; listed as Nootkatone control): 0.0074% and 0.0073%; dissolution of nootkatone in solvent ([1]; glycerin): unable to successfully dissolve; dissolution of nootkatone in solvent ([1]; water): unable to successfully dissolve
C=C(C)[C@@H]1CCC2CC(=O)C[C@@H](C)[C@]2(C)C1 (stereo partly shown) [1,10 dihydronootkatone, 1,10-dihydronootkatone] | 10 | 1 | 10 | 9 | 10 | 10 | 10 | 6 | 10 | 6 | 10 | 3 | 10 | 1 | 10 | 2 | 0.0097% | –
CC(C)[C@@H]1CCC2CC(=O)C[C@@H](C)[C@]2(C)C1 (stereo partly shown) [Tetrahydronootkatone, tetrahydronootkatone] | 5 | 1 | 10 | 10 | 10 | 10 | 9 | 9 | 7 | 7 | 7 | 7 | 6 | 5 | 6 | 4 | 0.0780% | –
CC(C)C1CCC2=CC(=O)CC(C)C2(C)C1 (stereo not shown) [11,12 dihydronootkatone, 11,12-dihydronootkatone] | 2 | 0 | 10 | 6 | 10 | 7 | 10 | 1 | 10 | 0 | 10 | 0 | 10 | 0 | 2 | 0 | 0.0071% | –
